Assay results from patent US11633416B1, “Oral formulations of CD73 compounds” (ARCUS BIOSCIENCES, INC., priority 2020, dated 2023).
Read-outs that look alike come from different tables or passages of the source.

Test: Oral exposure in cynomolgus monkeys, compound alone or with excipient in capsules; plasma by LC-MS/MS
Type: in vivo
Conditions: enteric capsule; for MRT inf: read-out: MRT0-∞
Text: The influence of different excipients on the bioavailability of Compound (Ia), Compound 2 and Compound 3 in cynomolgus monkeys was investigated. The excipients tested were sodium phytate, sodium citrate, sodium EDTA, cyclodextrin, sodium taurocholate, sodium polystyrene sulfate, sodium caprate, sodium phosphate, carbomer 971P and palmitoyl carnitine chloride. Generally, an appropriate quantity (as indicated in Table 1) of Compound (Ia), Compound 2 or Compound 3 and an excipient were mixed to homogeneity and transferred to capsules for dosing. In one example, Compound (Ia) (500 mg assay, 1.063 correction factor applied for to account for purity) and 2.75 g of sodium phytate (Sigma) were combined in a mortar and pestle. The mixture was ground to homogeneity then 530 mg of the white powder was transferred to enteric capsules (Size 0) prior to dosing.
[…] Compound (Ia), Compound 2 or Compound 3, either alone, or with excipient, in an enteric capsule was administered via an oral pet piller. Blood samples were collected from a peripheral vessel at designated time points, and centrifuged to obtain plasma.
Plasma samples obtained at each time point from the subjects were prepared by protein precipitation. An aliquot of 50 μL sample was added with 150 μL acetonitrile containing an internal standard ([[[(2R,3S,4R,5R)-5-[6-chloro-4-[[(1S)-2,2,2-trideuterio-1-(2-fluorophenyl)ethyl]amino]pyrazolo[3,4-b]pyridin-1-yl]-3,4-dihydroxyoxolan-2-yl]-dideuteriomethoxy]-hydroxyphosphoryl]methylphosphonic acid, 200 ng/mL in Acetonitrile). The mixture was vortexed for 15 min and then centrifuged at 4500 rpm for 15 min at 4° C. (Sorvall Legend XTR centrifuge, Thermo Scientific, Langenselbold, Germany). 80 μL of the resulting supernatant was transferred into a new plate and mixed with 160 μL water followed by LC-MS/MS analysis.
• API 4000 mass spectrometer (Applied Biosystems, Foster City, Calif.) • Shimadzu Nexera X^2 UHPLC System (Shimadzu Scientific Instruments, Canby, Oreg.) Column: SHISEIDO CAPCELL PAK INERT ADME S3 (2.00 mm×50 mm, Part No. 79001) Mobile Phase A: 8.6 mM Triethylamine, 100 mM HFIP (1,1,1,3,3,3-Hexafluoro-2-propanol) in Water Mobile Phase B: 8.6 mM Triethylamine, and 100 mM HFIP in [Acetonitrile:water (95:5, v/v) Needle wash (weak & strong): Acetone:MeCN:Water (80:20:20, v/v/v) Flow Rate: 0.50 mL/min HPLC Gradient:
• Ionization Mode: Electrospray (ESI) • Detection Mode: Negative MRM (Q1/Q3 transitions: m/z 579.0/157.0 for Compound (Ia) or Compound 3; m/z 584.0/157.0 for Internal Standard); (Q1/Q3 transitions m/z 562.2/157.0 for Compound 2; m/z 584.0/157.0 for Internal Standard)

[1] = male, cynomolgus monkey, plasma, po, 50 mg, Table 2: oral, dose 50 mg, + 275 mg sodium phytate
[2] = male, cynomolgus monkey, plasma, po, 50 mg, Table 2: oral, dose 50 mg, neat
[3] = oral, dose 50 mg, with 275 mg sodium phytate (Sigma-Aldrich, ≥5 mol sodium/mol), fasted

C[C@H](Nc1cc(Cl)nc2c1cnn2[C@@H]1O[C@H](COP(=O)(O)CP(=O)(O)O)[C@@H](O)[C@H]1O)c1ccccc1F [Ia (•3Na), (((((2R,3S,4R,5R)-5-(6-chloro-4-(((S)-1-(2-fluorophenyl)ethyl)amino)-1H-pyrazolo[3,4-b]pyridin-1-yl)-3,4-dihydroxytetrahydrofuran-2-yl)methoxy)(hydroxy)phosphoryl)methyl)phosphonic acid]
Exposure Enhancement (Table 2: oral, dose 50 mg, + 275 mg sodium phytate versus neat): 9.1-fold
AUC(0-inf) (male, cynomolgus monkey, plasma, po, 10 mg, with 195 mg sodium citrate, 6 mg SDS, fasted): 1940 ng·h/mL
Cmax (male, cynomolgus monkey, plasma, po, 10 mg, oral, dose 10 mg, with 195 mg sodium citrate, 6 mg SDS, fasted, read-out: Cmax): 286 ng/mL
AUC(0-inf) [1]: 122000 ng·h/mL
AUC(0-t) [1]: 88000 ng·h/mL
Tmax [1]: 3 h
Cmax (male, cynomolgus monkey, plasma, po, 50 mg, Table 2: oral, dose 50 mg, + 275 mg sodium phytate, read-out: Cmax): 3680 ng/mL
MRT inf [1]: 35.8 h
AUC(0-inf) [2]: 13400 ng·h/mL
AUC(0-t) [2]: 10300 ng·h/mL
Tmax [2]: 1.75 h
Cmax (male, cynomolgus monkey, plasma, po, 50 mg, Table 2: oral, dose 50 mg, neat, read-out: Cmax): 631 ng/mL
MRT inf [2]: 29.2 h
AUC(0-inf) (male, cynomolgus monkey, plasma, po, 50 mg, neat, fasted): 13400 ng·h/mL
AUC(0-inf) (male, cynomolgus monkey, plasma, po, 50 mg, with 25 mg sodium taurocholate, fasted): 9300 ng·h/mL
AUC(0-inf) (male, cynomolgus monkey, plasma, po, 50 mg, with 50 mg sodium phytate (Sigma-Aldrich), fasted): 59700 ng·h/mL
AUC(0-inf) (male, cynomolgus monkey, plasma, po, 50 mg, with 100 mg Na-EDTA, fasted): 154000 ng·h/mL
AUC(0-inf) (male, cynomolgus monkey, plasma, po, 50 mg, with 100 mg cyclodextrin, fasted): 8230 ng·h/mL
AUC(0-inf) (male, cynomolgus monkey, plasma, po, 50 mg, with 100 mg palmitoyl carnitine chloride, fasted): 43400 ng·h/mL
AUC(0-inf) (male, cynomolgus monkey, plasma, po, 50 mg, with 195 mg sodium citrate, 3 mg SDS, fasted): 22200 ng·h/mL
AUC(0-inf) (male, cynomolgus monkey, plasma, po, 50 mg, with 195 mg sodium citrate, 6 mg SDS, non-fasted animal): 16500 ng·h/mL
AUC(0-inf) (male, cynomolgus monkey, plasma, po, 50 mg, with 195 mg sodium citrate, 6 mg sodium dodecyl sulfate (SDS), fasted): 38300 ng·h/mL
AUC(0-inf) (male, cynomolgus monkey, plasma, po, 50 mg, with 227.5 mg sodium caprate, fasted): 20300 ng·h/mL
AUC(0-inf) (male, cynomolgus monkey, plasma, po, 50 mg, with 275 mg sodium phytate (Sigma-Aldrich, ≥5 mol sodium/mol), fasted): 109000 ng·h/mL
AUC(0-inf) (male, cynomolgus monkey, plasma, po, 50 mg, with 275 mg sodium phytate, dodecasodium, fasted): 69400 ng·h/mL
AUC(0-inf) (male, cynomolgus monkey, plasma, po, 50 mg, with 275 mg sodium phytate, hexasodium, fasted): 152000 ng·h/mL
AUC(0-inf) (male, cynomolgus monkey, plasma, po, 50 mg, with 325 mg sodium polystyrene sulfate, fasted): 41400 ng·h/mL
AUC(0-inf) (male, cynomolgus monkey, plasma, po, 50 mg, with 400 mg sodium phosphate, fasted): 20500 ng·h/mL
AUC(0-inf) (male, cynomolgus monkey, plasma, po, 50 mg, with 7% w/w carbomer 971P, fasted): 41300 ng·h/mL
Cmax (male, cynomolgus monkey, plasma, po, 50 mg, oral, dose 50 mg, neat, fasted, read-out: Cmax): 631 ng/mL
Cmax (male, cynomolgus monkey, plasma, po, 50 mg, oral, dose 50 mg, with 25 mg sodium taurocholate, fasted, read-out: Cmax): 455 ng/mL
Cmax (male, cynomolgus monkey, plasma, po, 50 mg, oral, dose 50 mg, with 50 mg sodium phytate (Sigma-Aldrich), fasted, read-out: Cmax): 1650 ng/mL
Cmax (male, cynomolgus monkey, plasma, po, 50 mg, oral, dose 50 mg, with 100 mg Na-EDTA, fasted, read-out: Cmax): 6840 ng/mL
Cmax (male, cynomolgus monkey, plasma, po, 50 mg, oral, dose 50 mg, with 100 mg cyclodextrin, fasted, read-out: Cmax): 526 ng/mL
Cmax (male, cynomolgus monkey, plasma, po, 50 mg, oral, dose 50 mg, with 100 mg palmitoyl carnitine chloride, fasted, read-out: Cmax): 3660 ng/mL
Cmax (male, cynomolgus monkey, plasma, po, 50 mg, oral, dose 50 mg, with 195 mg sodium citrate, 3 mg SDS, fasted, read-out: Cmax): 922 ng/mL
Cmax (male, cynomolgus monkey, plasma, po, 50 mg, oral, dose 50 mg, with 195 mg sodium citrate, 6 mg SDS, non-fasted animal, read-out: Cmax): 863 ng/mL
Cmax (male, cynomolgus monkey, plasma, po, 50 mg, oral, dose 50 mg, with 195 mg sodium citrate, 6 mg sodium dodecyl sulfate (SDS), fasted, read-out: Cmax): 1520 ng/mL
Cmax (male, cynomolgus monkey, plasma, po, 50 mg, oral, dose 50 mg, with 227.5 mg sodium caprate, fasted, read-out: Cmax): 912 ng/mL
Cmax (male, cynomolgus monkey, plasma, po, 50 mg, oral, dose 50 mg, with 275 mg sodium phytate (Sigma-Aldrich, ≥5 mol sodium/mol), fasted, read-out: Cmax): 3570 ng/mL
Cmax (male, cynomolgus monkey, plasma, po, 50 mg, oral, dose 50 mg, with 275 mg sodium phytate, dodecasodium, fasted, read-out: Cmax): 2970 ng/mL
Cmax (male, cynomolgus monkey, plasma, po, 50 mg, oral, dose 50 mg, with 275 mg sodium phytate, hexasodium, fasted, read-out: Cmax): 4440 ng/mL
Cmax (male, cynomolgus monkey, plasma, po, 50 mg, oral, dose 50 mg, with 325 mg sodium polystyrene sulfate, fasted, read-out: Cmax): 1420 ng/mL
Cmax (male, cynomolgus monkey, plasma, po, 50 mg, oral, dose 50 mg, with 400 mg sodium phosphate, fasted, read-out: Cmax): 700 ng/mL
Cmax (male, cynomolgus monkey, plasma, po, 50 mg, oral, dose 50 mg, with 7% w/w carbomer 971P, fasted, read-out: Cmax): 1480 ng/mL
AUC(0-inf) (male, cynomolgus monkey, plasma, po, 100 mg, with 275 mg sodium phytate (Sigma-Aldrich), fasted): 237000 ng·h/mL
Cmax (male, cynomolgus monkey, plasma, po, 100 mg, oral, dose 100 mg, with 275 mg sodium phytate (Sigma-Aldrich), fasted, read-out: Cmax): 5760 ng/mL
Exposure Enhancement (oral, dose 50 mg, with 50 mg sodium phytate (Sigma-Aldrich), relative to 50 mg Ia ( 3Na) without absorption enhancer): 4.5-fold^b
Exposure Enhancement (oral, dose 50 mg, with 100 mg Na-EDTA, relative to 50 mg Ia ( 3Na) without absorption enhancer): 11.5-fold^b
Exposure Enhancement (oral, dose 50 mg, with 100 mg palmitoyl carnitine chloride, relative to 50 mg Ia ( 3Na) without absorption enhancer): 3.2-fold^b
Exposure Enhancement (oral, dose 50 mg, with 195 mg sodium citrate, 3 mg SDS, relative to 50 mg Ia ( 3Na) neat): 1.7-fold
Exposure Enhancement (oral, dose 50 mg, with 195 mg sodium citrate, 6 mg SDS, non-fasted animal, relative to 50 mg Ia ( 3Na) without absorption enhancer): 1.2-fold^b
Exposure Enhancement (oral, dose 50 mg, with 195 mg sodium citrate, 6 mg SDS, relative to 50 mg Ia ( 3Na) without absorption enhancer): 2.9-fold^b
Exposure Enhancement (oral, dose 50 mg, with 227.5 mg sodium caprate, relative to 50 mg Ia ( 3Na) without absorption enhancer): 1.5-fold^b
Exposure Enhancement (oral, dose 50 mg, with 275 mg sodium phytate (Sigma-Aldrich), relative to 50 mg Ia ( 3Na) without absorption enhancer): 9.1-fold^b
Exposure Enhancement (oral, dose 50 mg, with 275 mg sodium phytate (Sigma-Aldrich), relative to 50 mg Ia ( 3Na) without absorption enhancer, listed as Ia ( 3Na)): 8.1-fold^b
AUC0-∞ [3]: 122,000 h*ng/mL
Cmax [3]: 3,680 ng/mL
Exposure Enhancement (oral, dose 50 mg, with 275 mg sodium phytate, dodecasodium, relative to 50 mg Ia ( 3Na) without absorption enhancer): 5.2-fold^b
Exposure Enhancement (oral, dose 50 mg, with 275 mg sodium phytate, hexasodium, relative to 50 mg Ia ( 3Na) without absorption enhancer): 11.4-fold^b
Exposure Enhancement (oral, dose 50 mg, with 325 mg sodium polystyrene sulfate, relative to 50 mg Ia ( 3Na) without absorption enhancer): 3.1-fold^b
Exposure Enhancement (oral, dose 50 mg, with 400 mg sodium phosphate, relative to 50 mg Ia ( 3Na) without absorption enhancer): 1.9-fold^b
Exposure Enhancement (oral, dose 50 mg, with 7% w/w carbomer 971P, relative to 50 mg Ia ( 3Na) without absorption enhancer): 3.1-fold^b
